Measurements taken from patent US20150259371A1, “METHODS AND COMPOUNDS FOR INHIBITING GLYCOSYLTRANSFERASES” (SIMON FRASER UNIVERSITY, priority 2010, published 2015).

Tests used:
[1] = system: incorporation of azido sugar onto proteins in COS-7 cells; assay: Metabolic feeding and Staudinger ligation with biotin phosphine, streptavidin-HRP blot; type: cell-based, African green monkey; conditions: 50 μM, 24 h
Procedure: (A) Structures of the molecules used or generated during the chemoselective ligation study (X═O or S as indicated, R═H or Ac as indicated). (B) Western blots of COS-7 cell lysates administered specified agents at 50 μM for 24 h; vehicle only (C), Ac-GlcNAz or Ac-5SGlcNAz (41). Cells were harvested and then underwent the Staudinger ligation with biotin phosphine. Blots are probed with (from top to bottom) streptavidin-HRP, anti O-GlcNAc (CTD110.6) antibody and anti-actin antibody. (C) Western blot of immunoprecipitated nup62 from cell lysates following vehicle (C), 50 μM Ac-GlcNAz or Ac-5SGlcNAz (41) treatment for 24 h. Following immunoprecipitation, nup62 was incubated with buffer (−) or with BtGH84 (+) for 2 h to remove O-GlcNAc, and then underwent the Staudinger ligation with biotin phosphine. Blots are probed with streptavidin-HRP. […]
To probe the possibility that 5SGlcNAc is being incorporated onto proteins, we used a metabolic feeding and chemoselective ligation strategy using 2-azidoacetamido-2-deoxy-D-glucopyranose (GlcNAz), which can be assimilated by the HBP to form uridine diphospho-N-azidoacetylglucosamine (UDP-GlcNAz) and then be installed onto proteins as O-GlcNAz^9. […] Accordingly, we evaluated whether 2-azidoacetamido-2-deoxy-5-thio-D-glucopyranose (5SGlcNAz) is incorporated onto proteins to determine whether 5SGlcNAc might be transferred onto proteins in cells. […]

[2] = system: EMEG32 heterozygous mouse embryonic fibroblast cells; assay: Cell proliferation growth curves over 5 days and western blot, EMEG32 heterozygous fibroblasts; type: cell-based; conditions: EMEG32 heterozygotes, 50 μM, 5 days
Procedure: (A) Cell proliferation curves over the course of 5 days for CHO cells following no (circles), 50 μM Ac-GlcNAc (squares) or 50 μM Ac-5SGlcNAc (triangles) treatment. The error bars indicate the deviation from the mean for triplicate measurements. […] Upper panel, probed with anti-O-GlcNAc antibody (CTD110.6); lower panel, probed with anti-actin antibody. (B) Cell proliferation curves over the course of 5 days for EMEG heterozygous mouse embryonic fibroblast cells following no (circles), 50 μM Ac-GlcNAc (squares) or 50 μM Ac-5SGlcNAc (triangles) treatment. The error bars indicate the deviation from the mean for triplicate measurements. […] Upper panel, probed with anti-O-GlcNAc antibody (CTD110.6); lower panel, probed with anti-actin antibody. (C) Western blots of CHO cell lysates following no (C) or Ac-5SGlcNAc administration at 50 μM for 4 days. Probed with (from top to bottom) anti-Spl antibody, anti O-GlcNAc (CTD110.6) antibody and anti-actin antibody. Full blot of the anti-Sp 1 is shown in panel (d). (D) Western blots of CHO cell lysates following no (C) or Ac-5SGlcNAc administration at 50 μM for 4 days. The full blot probed with anti-Spl antibody is shown. (E) Western blots of COS-7 cell lysates following no (C) or 50 μM Ac-5SGlcNAc treatment for 24 h. Following treatment, the media was replaced with no inhibitor, and cells were harvested at the time points indicated (between 0 and 24 h). Upper panel, probed with anti-O-GlcNAc antibody (CTD110.6); lower panel, probed with anti-actin antibody.
Cellular responses to Ac-5SGlcNAc (9) treatment and consequent decreases in O-GlcNAc levels were evaluated. […] We quantitatively evaluated cell proliferation and established growth curves over the course of 5 days in both CHO and EMEG32 heterozygous mouse embryonic fibroblast cells treated with 50 μM Ac-5SGlcNAc (9), 50 μM Ac-GlcNAc (G), or vehicle (FIGS. 5A-B).

[3] = system: O-GlcNAc levels in COS-7 cells; assay: Western blot of O-GlcNAc levels (CTD110.6) in treated COS-7 cells; type: cell-based, African green monkey; conditions: 50 μM, 24 h
Procedure: Cell culture: Cells were grown in an incubator at 37° C. and 5% CO2 atmosphere. Media and serum were purchased from Invitrogen. COS-7 cells were cultured in Dulbecco's modified Eagle's medium (DMEM) with 5% fetal bovine serum (FBS), and were typically 80-100% confluent prior to experimentation. HepG2, SK-N-SH, and EMEG32^−/− cells were cultured in Dulbecco's modified Eagle's medium (DMEM) with 5% fetal bovine serum (FBS), CHO cells in DMEMF-12 with 5% FBS and PC12 cells in DMEM with 5% FBS and 5% horse serum. Prior to experimentation, PC12 cells were plated at a density of 3-4×10^5 cells10 cm plate, which had been pre-treated with 5 μgcm^2 rat tail collagen (BD Biosciences). Cells were differentiated in DMEM containing 1% horse serum, in the presence of 2.5S mouse nerve growth factor (Chemicon) at a final concentration of 25 ng mL^−1, for 4-5 days prior to treatment. Other cell lines were 80-100% confluent prior to treatment. Following treatment with (Ac-)5SGlcNAc, using various conditions, cells were washed gently with PBS, lysed in SDS loading buffer and boiled for 10 minutes. Mouse hybridoma cells (obtained from the Developmental Studies Hybridoma Bank; antibody E7 for (:1-tubulin) were cultured in RPMI40 with 10% FBS. Prior to treatment with Ac-5SGlcNAc, hybridoma cells were cultured for 2 days in RPMI40 with 5% FBS, and during treatment in RPMI40 with no serum. Cells were collected, centrifuged (800 x g, 5 min) and the supernatant removed. Cells were washed with PBS, centrifuged, the pellet resuspended in SDS loading buffer and boiled. The supernatant after centrifugation, which contained the IgG antibody produced by the cells, was used for immunoprecipitation (see below for details).
Westernlectin blots: Samples were run on 10% SDS polyacrylamide gels and transferred onto nitrocellulose membranes (Biorad). Membranes were blocked for 1 h in PBS containing 0.1% Tween-20 (PBS-T) containing 1% (unless otherwise stated) bovine serum albumin (BSA), and probed with the appropriate primary antibody or lectin in 1% BSA in PBS-T overnight at 4° C. Blots were washed for 1 hr with PBS-T, and blocked for a further 30 min with 1% BSA in PBS-T at room temperature. They were then probed with the appropriate horseradish peroxidise (HRP)-conjugated secondary antibodyprobe in 1% BSA in PBS-T at room temperature for 1 h, followed by washing in PBS-T for 1 h. Blots were developed with SuperSignal West Pico Chemiluminescent Substrate (Pierce) and exposed to CL-XPosure film (Pierce). Densitometry was performed using ImageQuant 5.2 (Molecular Dynamics), and fits to the data were made using GRAFIT^41.
Antibodieslectins: O-GlcNAc levels were assessed primarily using CTD110.6 (Covance), but RL2 (Abcam) and HGAC85 (Abcam) were also tested. Actin was probed using JLA20 (Developmental Studies Hybridoma Bank). OGA levels were assessed using a polyclonal anti-OGA antibody which was a kind gift from Dr. Gerald Hart and OGT levels using H-300 (Santa Cruz Biotechnology). nup62 was probed using mAb 414 (Covance). Secondary antibodies employed (HRP-conjugated goat anti-mouse IgM, goat anti-mouse IgG, goat anti-chicken IgY and goat anti-rabbit IgG) were obtained from Santa Cruz Biotechnology. Biotinylated-ConA, PHA-L, SNA and MAA were purchased from EY Laboratories, and biotinylated-GNA from Vector Laboratories. HRP-conjugated streptavidin (Pierce) was used as a probe for the biotinylated lectins.
Analogues (9, 10, 17-41) were tested in COS-7 cells, dosed at a final concentration of 50 μM in DMSO for 24 h. Following treatment, cells were washed with PBS, harvested into SDS-PAGE loading buffer and analyzed by western blot using standard procedures; blots were probed with the anti-O-GlcNAc antibody (CTD 110.6).

[4] = system: O-GlcNAc levels in mice tissues; assay: O-GlcNAc levels in mouse tissues after intraperitoneal dosing; type: in vivo; conditions: 300 mg/kg intraperitoneally, 16 hours
Procedure: Ac-5SGlcNAc 9 and the deprotected analogue with the hexyl substituent at the C2 position 28 have been analyzed for effectiveness at decreasing O-GlcNAc levels in mice. Pilot studies were conducted with mice dosed in triplicate with either compound or vehicle alone. Compounds were dosed at 300 mg/kg intraperitoneally using 75% DMSO as vehicle for delivery of 9 and phosphate-buffered saline (PBS) for delivery of 28. Mice were euthanized using a CO2 chamber after 16 hours exposure to either compound, and tissues (liver, lung, heart, kidney, spleen, pancreas, brain, blood, fat and muscle) harvested and flash frozen in liquid nitrogen. Frozen tissues were ground using a pestle and mortar, and resuspended in cell lysis buffer (50 mM NaH2PO4, 150 mM NaCl, 0.1% SDS, 1% NP-40, 0.25% sodium deoxycholate, 1 mM EDTA, 30 mM sodium fluoride, 30 mM β-glycerophosphate, 5 mM sodium pyrophosphate, 1 mM Thiamet-G, protease inhibitor cocktail (Roche)) at a concentration of 100 mg tissue1 mL buffer prior to homogenization. Homogenates were centrifuged at 13,000 rpm for 20 min, the supernatant removed, added to 2×SDS-PAGE loading buffer and boiled for […]. SDS-PAGE and western blots were performed using standard procedures. Blots were probed using anti-O-GlcNAc antibody (CTD110.6, Santa Cruz Biotechnology) and anti-actin antibody for a loading control.

Compound	streptavidin signal after Staudinger ligation (accumulation of azido sugar on proteins) [1]	growth rate [2]	effect on O-GlcNAc levels at single dose [3]	O-GlcNAc levels in tissues [4]	extent of decrease of O-GlcNAc levels relative to parent compound 9 [3]
2-azidoacetamido-2-deoxy-5-thio-D-glucopyranose [Compound 5SGlcNAz]	does not accumulate on proteins to any measurable level				
CC(=O)N[C@H]1[C@H](OC(C)=O)O[C@H](COC(C)=O)[C@@H](OC(C)=O)[C@@H]1OC(C)=O [Ac-GlcNAc, reference compound]		indistinguishable but were both lower than vehicle treated cells			
CC(=O)OC[C@H]1O[C@H](OC(C)=O)[C@H](NC(=O)CN=[N+]=[N-])[C@@H](OC(C)=O)[C@@H]1OC(C)=O [Ac-GlcNAz, 1,3,4,6-tetra-O-acetyl-2-azidoacetamido-2-deoxy-ot-D-glucopyranose, reference compound]	Only proteins from cells treated with Ac-GlcNAz revealed any signal		only 5SGlcNAz decreased O-GlcNAc levels		
CCCCCC(=O)NC1C(O)SC(CO)C(O)C1O [Compound 28, N-Hexonoyl-a-D-5-thio-glucosamine]			decreased O-GlcNAc levels in cells	effective at decreasing O-GlcNAc levels during the 16 hour dosing period in the liver, lung, heart, kidney, spleen, pancreas, fat and muscle	comparable extent to the parent compound
